Test results as given in ChEMBL document CHEMBL3885881, “DrugMatrix”.

Organism: Rattus norvegicus
Format: toxicity, organism-based, Sprague-Dawley
Details: in vivo, ip, route intraperitoneal, vehicle 100 % SALINE; for ABSOLUTE EOSINOPHIL / ABSOLUTE LYMPHOCYTE / ABSOLUTE MONOCYTE / ABSOLUTE SEGMENTED NEUTROPHIL / BASOPHIL / EOSINOPHIL / ERYTHROCYTE COUNT / HEMATOCRIT / HEMOGLOBIN / LEUKOCYTE COUNT / LYMPHOCYTE / MEAN CORPUSCULAR HEMOGLOBIN / MEAN CORPUSCULAR HEMOGLOBIN CONCENTRATION / MEAN CORPUSCULAR VOLUME / MONOCYTE / NEUTROPHIL / NUCLEATED RED BLOOD CELLS / PLATELET COUNT: tissue Blood; for ALANINE AMINOTRANSFERASE / ALBUMIN / ALKALINE PHOSPHATASE / ASPARTATE AMINOTRANSFERASE / BLOOD UREA NITROGEN / CARBON DIOXIDE / CHLORIDE / CHOLESTEROL / CREATINE PHOSPHOKINASE / CREATININE / GLUCOSE / LACTATE DEHYDROGENASE / LIPASE / PHOSPHORUS / POTASSIUM / SODIUM / TOTAL BILIRUBIN / TOTAL PROTEIN / URIC ACID: tissue Plasma
[1] = 16 mg/kg, 24 h, dose level Low, time 1 day
[2] = 25 mg/kg, 6 h, dose level M1, time 0.25 day
[3] = 25 mg/kg, 24 h, dose level M1, time 1 day

Description: DrugMatrix - Regimen: Single

C=CCO [ALLYL ALCOHOL]
ABSOLUTE EOSINOPHIL [1]: 29.33 CELLS/uL | ABSOLUTE LYMPHOCYTE [1]: 15204.83 CELLS/uL | ABSOLUTE MONOCYTE [1]: 174.67 CELLS/uL | ABSOLUTE SEGMENTED NEUTROPHIL [1]: 841.17 CELLS/uL | BASOPHIL [1]: 0% | EOSINOPHIL [1]: 0.17% | ERYTHROCYTE COUNT [1]: 5.13 x10E6/uL | HEMATOCRIT [1]: 33.13% | HEMOGLOBIN [1]: 12.85 G/DL | LEUKOCYTE COUNT [1]: 16.25 x10E3/uL | LYMPHOCYTE [1]: 93.83% | MEAN CORPUSCULAR HEMOGLOBIN [1]: 25.02 pg | MEAN CORPUSCULAR HEMOGLOBIN CONCENTRATION [1]: 38.82 G/DL | MEAN CORPUSCULAR VOLUME [1]: 64.5 fL | MONOCYTE [1]: 1% | NEUTROPHIL [1]: 5% | NUCLEATED RED BLOOD CELLS [1]: 0.33 /100WBC | PLATELET COUNT [1]: 1056.83 x10E3/uL | ALANINE AMINOTRANSFERASE [1]: 50.67 u/L | ALBUMIN [1]: 4.33 G/DL | ALKALINE PHOSPHATASE [1]: 273.5 u/L | ASPARTATE AMINOTRANSFERASE [1]: 75.83 u/L | BLOOD UREA NITROGEN [1]: 11.17 mg/dL | CARBON DIOXIDE [1]: 27.5 mmol/L | CHLORIDE [1]: 101.83 MEQ/L | CHOLESTEROL [1]: 67 mg/dL | CREATINE PHOSPHOKINASE [1]: 299.83 u/L | CREATININE [1]: 0.18 mg/dL | GLUCOSE [1]: 166.33 mg/dL | LACTATE DEHYDROGENASE [1]: 243.17 u/L | LIPASE [1]: 9.67 u/L | PHOSPHORUS [1]: 10.5 mg/dL | POTASSIUM [1]: 5.58 MEQ/L | SODIUM [1]: 147.05 MEQ/L | TOTAL BILIRUBIN [1]: 0.15 mg/dL | TOTAL PROTEIN [1]: 5.87 G/DL | URIC ACID [1]: 1.25 mg/dL | ABSOLUTE EOSINOPHIL [2]: 0 CELLS/uL | ABSOLUTE LYMPHOCYTE [2]: 12514.83 CELLS/uL | ABSOLUTE MONOCYTE [2]: 196.67 CELLS/uL | ABSOLUTE SEGMENTED NEUTROPHIL [2]: 2271.83 CELLS/uL | BASOPHIL [2]: 0% | EOSINOPHIL [2]: 0% | ERYTHROCYTE COUNT [2]: 5.42 x10E6/uL | HEMATOCRIT [2]: 35.1% | HEMOGLOBIN [2]: 13.58 G/DL | LEUKOCYTE COUNT [2]: 14.98 x10E3/uL | LYMPHOCYTE [2]: 83.83% | MEAN CORPUSCULAR HEMOGLOBIN [2]: 25.07 pg | MEAN CORPUSCULAR HEMOGLOBIN CONCENTRATION [2]: 38.7 G/DL | MEAN CORPUSCULAR VOLUME [2]: 64.73 fL | MONOCYTE [2]: 1.33% | NEUTROPHIL [2]: 14.83% | NUCLEATED RED BLOOD CELLS [2]: 0 /100WBC | PLATELET COUNT [2]: 1079 x10E3/uL | ALANINE AMINOTRANSFERASE [2]: 87.5 u/L | ALBUMIN [2]: 4.43 G/DL | ALKALINE PHOSPHATASE [2]: 238.5 u/L | ASPARTATE AMINOTRANSFERASE [2]: 133.17 u/L | BLOOD UREA NITROGEN [2]: 10.33 mg/dL | CARBON DIOXIDE [2]: 27.67 mmol/L | CHLORIDE [2]: 101.5 MEQ/L | CHOLESTEROL [2]: 58.83 mg/dL | CREATINE PHOSPHOKINASE [2]: 180 u/L | CREATININE [2]: 0.12 mg/dL | GLUCOSE [2]: 158.17 mg/dL | LACTATE DEHYDROGENASE [2]: 175.17 u/L | LIPASE [2]: 10.67 u/L | PHOSPHORUS [2]: 11.65 mg/dL | POTASSIUM [2]: 5.53 MEQ/L | SODIUM [2]: 144.52 MEQ/L | TOTAL BILIRUBIN [2]: 0.12 mg/dL | TOTAL PROTEIN [2]: 5.95 G/DL | URIC ACID [2]: 1.33 mg/dL | ABSOLUTE EOSINOPHIL [3]: 41.33 CELLS/uL | ABSOLUTE LYMPHOCYTE [3]: 12363.17 CELLS/uL | ABSOLUTE MONOCYTE [3]: 291.83 CELLS/uL | ABSOLUTE SEGMENTED NEUTROPHIL [3]: 987 CELLS/uL | BASOPHIL [3]: 0% | EOSINOPHIL [3]: 0.33% | ERYTHROCYTE COUNT [3]: 5.25 x10E6/uL | HEMATOCRIT [3]: 35.35% | HEMOGLOBIN [3]: 13.55 G/DL | LEUKOCYTE COUNT [3]: 13.68 x10E3/uL | LYMPHOCYTE [3]: 90.33% | MEAN CORPUSCULAR HEMOGLOBIN [3]: 25.85 pg | MEAN CORPUSCULAR HEMOGLOBIN CONCENTRATION [3]: 38.38 G/DL | MEAN CORPUSCULAR VOLUME [3]: 67.32 fL | MONOCYTE [3]: 2.17% | NEUTROPHIL [3]: 7.17% | NUCLEATED RED BLOOD CELLS [3]: 0.33 /100WBC | PLATELET COUNT [3]: 960.33 x10E3/uL | ALANINE AMINOTRANSFERASE [3]: 143 u/L | ALBUMIN [3]: 4.27 G/DL | ALKALINE PHOSPHATASE [3]: 289.67 u/L | ASPARTATE AMINOTRANSFERASE [3]: 211.17 u/L | BLOOD UREA NITROGEN [3]: 12.5 mg/dL | CARBON DIOXIDE [3]: 28.33 mmol/L | CHLORIDE [3]: 100.67 MEQ/L | CHOLESTEROL [3]: 75.17 mg/dL | CREATINE PHOSPHOKINASE [3]: 317.5 u/L | CREATININE [3]: 0.22 mg/dL | GLUCOSE [3]: 148.33 mg/dL | LACTATE DEHYDROGENASE [3]: 194.67 u/L | LIPASE [3]: 9.33 u/L | PHOSPHORUS [3]: 11.4 mg/dL | POTASSIUM [3]: 6.21 MEQ/L | SODIUM [3]: 147.37 MEQ/L | TOTAL BILIRUBIN [3]: 0.17 mg/dL | TOTAL PROTEIN [3]: 5.9 G/DL | URIC ACID [3]: 1.15 mg/dL
